In patent US10047051B2, “Substituted pyridines and method of use” (AbbVie S.á{acute over (.)}r.l., priority 2015, dated 2018):

Legend:
Type in all cases: cell-based
CFTR ΔF508 mutant = target: T1, CFTR ΔF508 mutant (Homo sapiens, UniProt P13569, DEL508-508); assay: YFP-halide influx assay for the CFTR-ΔF508 mutation (CFBE41o- cells); conditions: forskolin 10.67 μM; for EC50: from (1−F/F0) vs concentration plot
T1 construct: expressed in transfected cells; host or cells: CFBE41o- cells, adenoviral transduction
Summary of the method: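 CFBE41o- cells transduced with adenovirus expressing CFTR ΔF508 and halide-sensitive YFP H148Q/I152L/F47L, then held 24 h at 27° C or with a CFTR modulator 24 h at 37° C. Iodide-induced quench recorded 2 min; EC50 from (1−F/F0) at 36 s versus concentration.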

CFTR G551D mutant = target: T2, CFTR G551D mutant (Homo sapiens, UniProt P13569, G551D); assay: YFP-halide influx assay for the CFTR-G551D mutation (HEK293 cells); conditions: forskolin 10.67 μM
T2 construct: expressed in transfected cells; host or cells: HEK293 cells, reverse transfection with plasmids
Summary of the method: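 HEK293 cells reverse-transfected with CFTR G551D and halide-sensitive YFP (H148Q/I152L/F47L), expressed 24 h at 37 °C. YFP fluorescence quenching recorded for 7 s after I⁻ injection. Response = 1−F/F0; EC50 derived from 1−F/F0 vs compound concentration.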

CFTR-G1349D = target: T3, CFTR-G1349D (Homo sapiens, UniProt P13569, G1349D); assay: YFP-halide influx assay for the CFTR-G1349D
T3 construct: expressed in transfected cells
Summary of the method: (§1)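 HEK293 cells reverse-transfected with a CFTR mutant and YFP H148Q/I152L/F47L halide sensor, expressed 24 h at 37° C. Fluorescence quenching followed for 7 s after I⁻ injection; activity expressed as 1−F/F0, with EC50 fitted from 1−F/F0 versus compound concentration.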

CFTR-G178R = target: T4, CFTR-G178R (Homo sapiens, UniProt P13569, G178R); assay: YFP-halide influx assay for the CFTR-G178R
T4 construct: expressed in transfected cells
Summary of the method: as §1

T2 sequence (P13569 whole entry G551D): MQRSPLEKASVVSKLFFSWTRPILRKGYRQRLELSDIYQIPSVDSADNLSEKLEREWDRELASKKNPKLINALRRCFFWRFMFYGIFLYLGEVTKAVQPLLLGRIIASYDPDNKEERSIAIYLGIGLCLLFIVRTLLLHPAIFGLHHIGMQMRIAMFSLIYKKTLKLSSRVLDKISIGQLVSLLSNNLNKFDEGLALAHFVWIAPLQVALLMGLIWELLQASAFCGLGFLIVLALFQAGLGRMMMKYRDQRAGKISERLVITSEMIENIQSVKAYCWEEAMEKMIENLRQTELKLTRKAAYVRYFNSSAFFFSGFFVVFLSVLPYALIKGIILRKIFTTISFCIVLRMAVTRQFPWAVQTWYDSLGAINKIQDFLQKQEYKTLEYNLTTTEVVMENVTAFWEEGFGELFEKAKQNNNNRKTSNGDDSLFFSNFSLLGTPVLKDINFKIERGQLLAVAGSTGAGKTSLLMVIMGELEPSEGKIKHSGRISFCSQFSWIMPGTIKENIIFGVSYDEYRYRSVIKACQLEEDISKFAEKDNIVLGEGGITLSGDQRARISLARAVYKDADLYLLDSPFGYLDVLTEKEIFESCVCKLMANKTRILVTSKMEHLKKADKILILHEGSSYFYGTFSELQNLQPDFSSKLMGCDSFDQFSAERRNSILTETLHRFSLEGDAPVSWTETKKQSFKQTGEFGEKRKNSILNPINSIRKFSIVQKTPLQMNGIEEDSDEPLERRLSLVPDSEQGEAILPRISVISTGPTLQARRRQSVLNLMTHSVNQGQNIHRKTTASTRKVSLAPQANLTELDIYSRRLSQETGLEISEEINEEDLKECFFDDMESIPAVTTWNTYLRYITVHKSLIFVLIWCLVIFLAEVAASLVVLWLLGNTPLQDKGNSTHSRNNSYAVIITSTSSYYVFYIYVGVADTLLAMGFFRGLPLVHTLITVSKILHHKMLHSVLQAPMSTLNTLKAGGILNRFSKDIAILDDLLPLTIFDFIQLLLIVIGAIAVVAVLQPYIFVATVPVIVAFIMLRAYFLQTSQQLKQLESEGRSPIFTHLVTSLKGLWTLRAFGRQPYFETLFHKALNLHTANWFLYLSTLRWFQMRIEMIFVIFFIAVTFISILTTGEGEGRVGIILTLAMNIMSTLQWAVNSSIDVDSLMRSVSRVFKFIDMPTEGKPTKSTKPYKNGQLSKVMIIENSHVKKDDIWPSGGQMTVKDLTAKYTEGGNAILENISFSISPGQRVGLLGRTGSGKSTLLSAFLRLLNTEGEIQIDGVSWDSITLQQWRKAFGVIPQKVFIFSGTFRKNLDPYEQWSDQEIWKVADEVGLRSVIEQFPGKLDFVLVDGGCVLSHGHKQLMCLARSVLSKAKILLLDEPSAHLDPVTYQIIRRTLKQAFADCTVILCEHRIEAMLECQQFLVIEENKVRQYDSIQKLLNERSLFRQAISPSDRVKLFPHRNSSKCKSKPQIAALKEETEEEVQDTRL
T3 sequence (P13569 whole entry G1349D): as the sequence (P13569 whole entry G551D) above, with D551G, G1349D counted along it
T4 sequence (P13569 whole entry G178R): as the sequence (P13569 whole entry G551D) above, with G178R, D551G counted along it
T1 sequence (P13569 with tags, fused parts or gaps DEL508-508): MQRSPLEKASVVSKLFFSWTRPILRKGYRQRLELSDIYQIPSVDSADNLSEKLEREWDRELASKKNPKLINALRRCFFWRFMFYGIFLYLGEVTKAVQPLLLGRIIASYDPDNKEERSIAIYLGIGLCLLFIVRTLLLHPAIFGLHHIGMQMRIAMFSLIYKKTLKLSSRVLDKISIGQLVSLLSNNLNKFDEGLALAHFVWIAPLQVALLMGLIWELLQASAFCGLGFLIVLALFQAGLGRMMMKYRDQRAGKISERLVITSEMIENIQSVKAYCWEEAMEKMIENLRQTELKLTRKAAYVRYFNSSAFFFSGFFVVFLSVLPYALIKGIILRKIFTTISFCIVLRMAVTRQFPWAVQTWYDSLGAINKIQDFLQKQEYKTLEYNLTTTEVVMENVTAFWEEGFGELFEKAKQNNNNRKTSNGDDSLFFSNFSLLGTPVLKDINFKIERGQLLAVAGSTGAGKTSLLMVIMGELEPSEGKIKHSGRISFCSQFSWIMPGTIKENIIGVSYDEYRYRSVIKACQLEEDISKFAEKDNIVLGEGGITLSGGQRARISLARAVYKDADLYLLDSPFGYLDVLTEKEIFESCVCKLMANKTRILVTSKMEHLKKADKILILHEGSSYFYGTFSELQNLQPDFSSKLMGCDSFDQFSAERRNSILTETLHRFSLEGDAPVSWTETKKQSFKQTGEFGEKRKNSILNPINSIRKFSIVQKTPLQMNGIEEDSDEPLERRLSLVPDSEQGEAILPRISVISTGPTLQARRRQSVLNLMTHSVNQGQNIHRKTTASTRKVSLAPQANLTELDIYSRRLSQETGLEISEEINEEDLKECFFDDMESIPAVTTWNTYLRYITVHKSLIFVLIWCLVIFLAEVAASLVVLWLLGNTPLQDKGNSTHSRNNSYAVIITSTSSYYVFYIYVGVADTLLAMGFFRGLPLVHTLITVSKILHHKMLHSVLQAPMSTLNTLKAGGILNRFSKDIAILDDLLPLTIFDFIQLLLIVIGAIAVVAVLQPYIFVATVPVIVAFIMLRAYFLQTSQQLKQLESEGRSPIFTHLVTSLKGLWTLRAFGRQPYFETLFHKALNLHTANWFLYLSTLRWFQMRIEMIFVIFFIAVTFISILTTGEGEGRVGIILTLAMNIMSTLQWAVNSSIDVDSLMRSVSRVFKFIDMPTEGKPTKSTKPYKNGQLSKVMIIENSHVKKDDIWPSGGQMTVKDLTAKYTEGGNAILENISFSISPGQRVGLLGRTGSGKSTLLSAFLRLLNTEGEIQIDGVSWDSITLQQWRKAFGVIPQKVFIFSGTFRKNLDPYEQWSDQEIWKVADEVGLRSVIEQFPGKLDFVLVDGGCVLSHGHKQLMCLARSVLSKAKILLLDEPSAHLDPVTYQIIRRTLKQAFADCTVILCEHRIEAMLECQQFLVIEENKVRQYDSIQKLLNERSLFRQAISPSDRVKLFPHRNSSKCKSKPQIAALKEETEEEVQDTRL

Compound	% Activation (CFTR ΔF508 mutant) [%]	EC50 (CFTR ΔF508 mutant) [nM]	% Activation (CFTR G551D mutant) [%]	EC50 (CFTR G551D mutant) [nM]	% Activation (CFTR-G1349D) [%]	EC50 (CFTR-G1349D) [nM]	% Activation (CFTR-G178R) [%]	EC50 (CFTR-G178R) [nM]
CC(C)(O)CNC(=O)c1ncc(S(=O)(=O)c2ccc(OC(F)(F)F)cc2)cc1N [Compound 1, 3-amino-N-(2-hydroxy-2-methylpropyl)-5-{[4-(trifluoromethoxy)phenyl]sulfonyl}pyridine-2-carboxamide]	97.9	31.4	47.1	700	69.6	265	82.7	302
CC(O)(CNC(=O)c1ncc(S(=O)(=O)c2ccc(OC(F)(F)F)cc2)cc1N)C(F)(F)F (stereo not shown) [Compound 2, 3-amino-N-(3,3,3-trifluoro-2-hydroxy-2-methylpropyl)-5-{[4-(trifluoromethoxy)phenyl]sulfonyl}pyridine-2-carboxamide]	104.5	4.3	62.5	739	69.4	567	71.8	494
Nc1cc(S(=O)(=O)c2ccc(OC(F)(F)F)cc2)cnc1C(=O)NCC(O)C(F)(F)F (stereo not shown) [Compound 6, 3-amino-N-(3,3,3-trifluoro-2-hydroxypropyl)-5-{[4-(trifluoromethoxy)phenyl]sulfonyl}pyridine-2-carboxamide]	114.0	3.4	82.5	350	87.4	158	93.1	80.7
Nc1cc(S(=O)(=O)c2ccc(OC(F)(F)F)cc2)cnc1C(=O)NCCO [Compound 14, 3-amino-N-(2-hydroxyethyl)-5-{[4-(trifluoromethoxy)phenyl]sulfonyl}pyridine-2-carboxamide]	108.1	23.7	71.6	1330	66.7	816	70.7	741
C[C@H](O)CNC(=O)c1ncc(S(=O)(=O)c2ccc(OC(F)(F)F)cc2)cc1N [Compound 21, 3-amino-N-[(2S)-2-hydroxypropyl]-5-{[4-(trifluoromethoxy)phenyl]sulfonyl}pyridine-2-carboxamide]	109.0	14.9	85.1	1200	88.9	498	86.1	284
Nc1cc(S(=O)(=O)c2ccc(F)cc2)cnc1C(=O)NC[C@H](O)C(F)(F)F [Compound 25, 3-amino-5-[(4-fluorophenyl)sulfonyl]-N-[(2S)-3,3,3-trifluoro-2-hydroxypropyl]pyridine-2-carboxamide]	108.3	8.1	67.2	976	82.6	412	76.8	211
Nc1cc(S(=O)(=O)c2ccc(OC(F)(F)F)cc2)cnc1C(=O)NC[C@H](O)C(F)(F)F [Compound 26, 3-amino-N-[(2S)-3,3,3-trifluoro-2-hydroxypropyl]-5-{[4-(trifluoromethoxy)phenyl]sulfonyl}pyridine-2-carboxamide]	105.3	2.2	80.8	315	–	–	–	–
Nc1cc(S(=O)(=O)c2ccc(OC(F)(F)F)cc2)cnc1C(=O)NCC(O)COCC1CC1 (stereo not shown) [Compound 31, 3-amino-N-[3-(cyclopropylmethoxy)-2-hydroxypropyl]-5-{[4-(trifluoromethoxy)phenyl]sulfonyl}pyridine-2-carboxamide]	106.2	18.6	71.7	425	86.8	511	84.3	348
Nc1cc(S(=O)(=O)c2ccc(OC(F)(F)F)cc2)cnc1C(=O)N1CC(O)C1 [Compound 32, (3-amino-5-{[4-(trifluoromethoxy)phenyl]sulfonyl}pyridin-2-yl)(3-hydroxyazetidin-1-yl)methanone]	96.1	14.5	65.8	1940	88.0	536	78.0	522
Nc1cc(S(=O)(=O)c2ccc(F)cc2)cnc1C(=O)NC[C@@H](O)C(F)(F)F [Compound 36, 3-amino-5-[(4-fluorophenyl)sulfonyl]-N-[(2R)-3,3,3-trifluoro-2-hydroxypropyl]pyridine-2-carboxamide]	111.0	8.5	58.4	667	82.7	312	79.3	230
Nc1cc(S(=O)(=O)c2ccc(OC(F)(F)F)cc2)cnc1C(=O)NC[C@@H](O)C(F)(F)F [Compound 37, 3-amino-N-[(2R)-3,3,3-trifluoro-2-hydroxypropyl]-5-{[4-(trifluoromethoxy)phenyl]sulfonyl}pyridine-2-carboxamide]	106.4	2.3	83.7	271	–	–	–	–
Nc1cc(S(=O)(=O)c2ccc(OC(F)(F)F)cc2)cnc1C(=O)N1CC(F)(F)C1 [Compound 40, (3-amino-5-{[4-(trifluoromethoxy)phenyl]sulfonyl}pyridin-2-yl)(3,3-difluoroazetidin-1-yl)methanone]	105.5	22.9	70.2	656	84.31	440	81.76	392
COC[C@H](O)CNC(=O)c1ncc(S(=O)(=O)c2ccc(C(F)(F)F)cc2)cc1N [Compound 70, 3-amino-N-[(2R)-2-hydroxy-3-methoxypropyl]-5-{[4-(trifluoromethyl)phenyl]sulfonyl}pyridine-2-carboxamide]	111.6	16.9	75.3	864	89.6	378	96.0	425
Nc1cc(S(=O)(=O)c2ccccc2OC(F)(F)F)cnc1C(=O)NC[C@@H](O)C(F)(F)F [Compound 81, 3-amino-N-[(2R)-3,3,3-trifluoro-2-hydroxypropyl]-5-{[2-(trifluoromethoxy)phenyl]sulfonyl}pyridine-2-carboxamide]	104.0	0.5	108.0	239	96.01	9.54	104.8	12.6
C[C@H](O)CNC(=O)c1ncc(S(=O)(=O)c2ccc(C(F)(F)F)cc2)cc1N [Compound 100, 3-amino-N-[(2S)-2-hydroxypropyl]-5-{[4-(trifluoromethyl)phenyl]sulfonyl}pyridine-2-carboxamide]	96.6	12.9	59.1	1140	75.5	533	78.7	546
